For one assay, the target named is Human RPA (Homo sapiens (Human), UniProt P27694). Put plainly: EMSA of inhibition of RPA binding to ssDNA. The note with it: for IC50: 25 nM RPA, 34-base DNA, 4 parameter logistic fit, read-out: IC50 (μM) In vitro; for inhibition at 100 µM: read-out: inhibition at the highest concentration tested. The procedure:
Small molecule inhibitors were obtained from ChemDiv and resuspended in DMSO. Compound TDLR-505 was independently synthesized and structure confirmed by mass spectrometry analysis. Human RPA was purified using an E. coli over expression system as previously described (7). EMSAs were performed in 20 μL reactions containing 25 nM RPA, 25 nM 5′[^32P]-labeled 34-base […] DNA as previously described (7). The final concentration of DMSO was 1%.
(§1) Referring now to TABLE 1, the in vitro IC50 was determined by EMSA analysis as described in FIG. 1A. The cellular IC50 value was determined by treating H460 cells with the indicated compounds and analyzing annexinV/PI staining as described in Methods. The in vitro and cellular data was analyzed using standard 4 parameter logistic-curve. The IC50 values and standard error of the fit were determined from this analysis.
Referring now to FIGS. 2C, D and E, EMSA analysis of compound TDLR-505, briefly, increasing concentrations of compound TDRL-505 were pre-incubated with RPA and DNA binding activity was assessed via EMSA using a 34-base ssDNA substrate. Referring now to FIG. 2D, the average and standard deviation of each point are presented. The data was fit to a standard 4 parameter logistic curve with an N=4.

In a further assay the test system is H460 NSCLC cell line. As to the kind of experiment: Annexin V/PI flow cytometry, induction of cell death. It counts as cell-based, human. The note with it: H460 cells; for IC50: Homo sapiens, NCI-H460, 48 hour exposure, annexinV/PI staining, read-out: IC50 (μM) Cellular. The protocol: H460 cells were analyzed for apoptosis using an Annexin V-FITC/Propidium iodide (PI) Vybrant Apoptosis Assay Kit (Invitrogen), according to manufacturer's instructions. Cells were plated at a density of 1×10^4 cells per cm^2 and allowed to adhere for 24 hours and then treated with compound TDLR-505 for 48 hours. Following plating and treatment of H460 cells as described above, adherent and non-adherent cells were collected, processed, and analyzed on a BD FACScan flow cytometer. Data was analyzed using WinMDI software (http://facs.scripps.edu/software.html). Cell cycle analysis was performed by PI staining Briefly, cells were plated and treated with compound collected and then washed twice with PBS-EDTA supplemented with 1% BSA. Cells were fixed in 70% EtOH at −20° C. while vortexing followed by incubation on ice for 30 minutes. Cells were then collected and stained with PI solution (10 μg/mL PI and 25 μg/mL RNaseA in PBS-EDTA supplemented with 1% BSA). Cells were analyzed on a Becton Dickinson FACScan flow cytometer. Cells were gated and analyzed on a histogram with events plotted against the FL2-A parameter. Cell cycle distribution was analyzed using ModFit software. G2 arrest was induced by treatment with 0.8 μg/mL nocodazole for 12 hours (10). Cells were then washed with PBS and treated with either vehicle or compound TDLR-505 (100 μM). Cells were harvested and analyzed for cell cycle distribution as described above.
as §1
Referring now to FIGS. 4A, 4B, 4C and 4D, the effects of compound TDRL-505 on induction of cell death and cell cycle progression in a H460 NSCLC cell line was measured. Briefly, H460 cells were treated with compound TDRL-505 for 48 hours and analyzed for cell viability via staining with AnnexinV/PI and presented as dot plots (see FIG. 3A). Referring now to FIG. 4B, the data from FIG. 4A was quantified and the percentage of Annexin-/PI-cells (lower left quadrant), indicating live cells, was calculated. The average±SD (N=4) are presented and the data was fit to a 4-parameter logistic curve.
In general terms: In flow cytometry, cells or beads pass a laser one at a time.

This note sets out measurements from patent US9533969B2, “Materials and method for inhibiting replication protein A and uses thereof” (Indiana University Research and Technology Corp., priority 2010, dated 2017).

Human RPA, sequence (P27694 whole entry): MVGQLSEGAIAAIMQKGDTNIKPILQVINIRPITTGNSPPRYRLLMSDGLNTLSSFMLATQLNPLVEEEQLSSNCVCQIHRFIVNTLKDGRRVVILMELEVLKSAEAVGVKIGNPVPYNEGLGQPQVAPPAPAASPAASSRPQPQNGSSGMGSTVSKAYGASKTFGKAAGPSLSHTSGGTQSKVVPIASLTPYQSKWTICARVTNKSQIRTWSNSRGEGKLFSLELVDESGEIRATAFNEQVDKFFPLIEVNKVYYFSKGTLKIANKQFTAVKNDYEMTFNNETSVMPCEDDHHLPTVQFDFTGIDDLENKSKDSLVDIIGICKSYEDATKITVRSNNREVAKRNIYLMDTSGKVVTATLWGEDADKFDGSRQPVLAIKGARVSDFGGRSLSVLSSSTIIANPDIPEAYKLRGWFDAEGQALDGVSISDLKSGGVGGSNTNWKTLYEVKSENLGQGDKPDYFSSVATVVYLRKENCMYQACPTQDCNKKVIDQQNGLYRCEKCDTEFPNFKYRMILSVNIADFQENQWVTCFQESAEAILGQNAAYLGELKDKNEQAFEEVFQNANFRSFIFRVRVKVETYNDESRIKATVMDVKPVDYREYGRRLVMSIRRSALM
Human RPA, sequence (P15927 whole entry partner): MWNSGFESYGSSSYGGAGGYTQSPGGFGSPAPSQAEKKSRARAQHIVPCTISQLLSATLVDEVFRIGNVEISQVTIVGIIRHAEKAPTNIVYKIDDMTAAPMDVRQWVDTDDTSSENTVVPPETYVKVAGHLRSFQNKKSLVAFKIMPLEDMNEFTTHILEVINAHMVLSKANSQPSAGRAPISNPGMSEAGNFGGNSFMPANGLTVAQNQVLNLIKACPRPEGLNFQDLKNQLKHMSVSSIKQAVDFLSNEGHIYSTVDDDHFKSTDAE
Human RPA, sequence (P35244 whole entry partner): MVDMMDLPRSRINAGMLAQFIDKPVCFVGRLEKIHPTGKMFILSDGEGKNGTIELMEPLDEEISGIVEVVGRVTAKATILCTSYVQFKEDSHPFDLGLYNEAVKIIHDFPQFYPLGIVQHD

For `Cc1ccc(C2=NN(C(=O)CCC(=O)O)C(c3cn(-c4ccccc4)nc3-c3ccc(C)cc3)C2)cc1` (stereo not shown) [TDRL-520], the IC50 at Human RPA was found to be 20.3 ± 10.7 µM; with H460 NSCLC cell line, 49.9 ± 2.5 µM.

With `COc1ccc(-c2nn(-c3ccccc3)cc2C2CC(c3ccc(Br)cc3)=NN2C(=O)CCC(=O)O)cc1` (stereo not shown) [TDRL-523], on Human RPA, the IC50 was more than 100 µM and the inhibition at 100 µM came to 36%. For the same molecule, at Human RPA (full length RPA heterotrimer), the “inhibition of RPA DNA binding (in words)” value is recorded as “minimal inhibition”. In addition, in the assay with H460 NSCLC cell line, the “cellular activity (in words)” value is on record as “modest cellular activity” and the IC50 is 31 ± 5.2 µM.

As to `CCN(CC)c1ccc(C2CC(c3ccc(Br)cc3)=NN2C(=O)CCC(=O)O)cc1` (stereo not shown) [TDRL-518], on Human RPA, the IC50 is more than 100 µM and the inhibition at 100 µM worked out at 9%.

Regarding `COc1ccc(C2=NN(C(=O)CCC(=O)O)C(c3cn(-c4ccccc4)nc3-c3ccc(C)cc3)C2)cc1` (stereo not shown) [TDRL-521], the IC50 on Human RPA came out at 71.7 ± 33.9 µM; with H460 NSCLC cell line, 56.9 ± 6.7 µM.

As to `Cc1ccc(-c2nn(-c3ccccc3)cc2C2CC(c3ccc(Br)cc3)=NN2C(=O)CCC(=O)O)cc1` (stereo not shown) [TDRL-522], the IC50 on Human RPA was found to be 56.1 ± 6.7 µM; with H460 NSCLC cell line it was 38 ± 32 µM.

In general, IC50 refers to the concentration that gives 50% inhibition.
